Reference: PubChem BioAssay (NCI)
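Each compound was tested at five concentrations against cells in 96-well plates for 48 hours. TGI: total growth inhibition.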

What was measured:
Assay in all cases: NCI anticancer screen, dose series, 48 h
MDA-MB-231 breast = system: MDA-MB-231 breast
UACC-257 melanoma = system: UACC-257 melanoma
786-0 renal = system: 786-0 renal
SF-295 CNS = system: SF-295 CNS
NCI-H460 lung = system: NCI-H460 lung
HS 578T breast = system: HS 578T breast
SK-MEL-5 melanoma = system: SK-MEL-5 melanoma
K-562 leukemia = system: K-562 leukemia
MDA-N = system: MDA-N
BT-549 breast = system: BT-549 breast
A498 renal = system: A498 renal
NCI/ADR-RES ovarian = system: NCI/ADR-RES ovarian
SNB-19 CNS = system: SNB-19 CNS

| SMILES | TGI (MDA-MB-231 breast) [µM] | TGI (UACC-257 melanoma) [µM] | TGI (786-0 renal) [µM] | TGI (SF-295 CNS) [µM] | TGI (NCI-H460 lung) [µM] | TGI (HS 578T breast) [µM] | TGI (SK-MEL-5 melanoma) [µM] | TGI (K-562 leukemia) [µM] | TGI (MDA-N) [µM] | TGI (BT-549 breast) [µM] | TGI (A498 renal) [µM] | TGI (NCI/ADR-RES ovarian) [µM] | TGI (SNB-19 CNS) [µM] |
| --- | --- | --- | --- | --- | --- | --- | --- | --- | --- | --- | --- | --- | --- |
| COc1cc(CNc2nc3ccccc3nc2C(=O)O)cc(OC)c1OC | > 100 | > 100 | > 100 | > 100 | > 100 | > 100 | > 100 | > 100 | > 100 | > 100 | > 100 | > 100 | – |
| COc1cccc(C(=O)C#Cc2cnc(OC)nc2OC)c1 | 7.42 | 6.42 | 3.61 | 31.7 | 28.3 | > 30.2 | 3.06 | > 100 | 3 | 2.63 | 22.1 | 4.83 | 34.8 |
| CN(C)CCc1c2c(nc3ccccc13)C(=O)c1cccnc1C2=O | 26.5 | 1.03 | 0.759 | 1.03 | 0.5 | 4.15 | 0.672 | > 29.1 | 1.38 | 1.71 | 1.72 | 1.03 | 3.88 |
| c1ccc(N=C2c3ccsc3C(=Nc3ccccc3)c3ccsc32)cc1 | 4.5 | 2.67 | 6.25 | 3.11 | 4.03 | 6.04 | 2.35 | 10.4 | 0.554 | 3.6 | 14.8 | 14.4 | 3.88 |
| COC(=O)C(Cc1c[nH]c2ccccc12)N=C1Nc2ccncc2S(=O)(=O)N1c1cccc(OC(C)C)c1 (stereo unspecified) | > 100 | > 100 | > 100 | > 100 | > 100 | > 100 | > 100 | > 100 | > 100 | > 100 | > 100 | > 100 | > 100 |
| CC(C)(C)OC(=O)NCCCCC(N)NC(=O)c1ccccc1 (stereo unspecified) | > 100 | > 100 | > 100 | > 100 | > 100 | > 100 | > 100 | > 100 | > 100 | > 100 | > 100 | > 100 | > 100 |
| CC1(C)CC(=O)c2c(nc3c4c([nH]c(-c5ccc(Br)cc5)c24)CC(C)(C)C3)C1 | > 100 | > 100 | 91 | > 100 | > 100 | > 100 | > 100 | > 100 | > 100 | > 100 | 86.7 | > 100 | > 100 |
| O=C(c1ccco1)N(C(=O)N1CCN(c2ccccc2)CC1)S(=O)(=O)c1ccccc1 | > 100 | > 100 | > 100 | > 100 | > 100 | > 100 | 68.3 | > 100 | 49.6 | 87.6 | > 100 | 55.1 | 85.2 |
| COc1ccc2c3c1O[C@H](c1ccc(O)cc1)[C@H]3[N+](C)(C)CC2 | > 100 | > 100 | > 100 | > 100 | > 100 | > 100 | > 100 | 88.2 | > 100 | > 100 | > 100 | > 100 | > 100 |
| C=CCC1(C)CCCN(Cc2ccccc2)C1=O (stereo unspecified) | > 10 | > 10 | > 10 | > 10 | > 10 | > 10 | 1.48 | > 10 | > 10 | > 10 | 3.91 | > 10 | > 10 |
| COc1ccc(C(=O)/C=C/c2ccc(OCC#N)cc2)cc1 | 72.5 | > 100 | > 100 | > 100 | 81.1 | > 100 | 28.4 | 96.6 | > 10 | 31.6 | 96.3 | 50 | > 100 |
| O=C1Cc2c([nH]c3ccc(C(=O)O)cc23)-c2ccccc2N1 | > 100 | > 100 | > 100 | > 100 | > 100 | > 100 | – | > 100 | > 100 | > 100 | > 100 | > 100 | > 100 |
| O=C1c2c(Br)sc(Br)c2[C@@H](NC(=O)C(F)(F)F)C1Br (stereo partly specified) | 6.06 | 3.97 | 5.13 | 31.6 | 31 | > 63.9 | 7.88 | 4.17 | 9.14 | 10.1 | 28.7 | 11 | 25.9 |
| Clc1ccc2oc(CCc3ccccc3)nc2c1 | > 100 | > 100 | > 100 | > 100 | > 100 | > 100 | 55.4 | > 100 | > 100 | > 100 | 60 | > 100 | > 100 |
| Nc1ccc(Nc2cc(=O)[nH]c(=O)[nH]2)cc1Cl | > 100 | > 100 | > 100 | > 100 | > 100 | > 100 | > 100 | > 100 | > 100 | > 100 | > 100 | > 100 | > 100 |
| CC(C)(CCC(C)(C)N1OC1c1ccccc1)N1OC1c1ccccc1 (stereo unspecified) | > 100 | > 100 | > 100 | > 100 | > 100 | > 100 | 37.8 | 37.7 | > 100 | > 100 | > 100 | > 100 | > 100 |
| CC(=O)OCC1OC(OCCCOP(=S)(OCCC#N)OCC2OC(n3ccc(N)nc3=O)C(OC(=O)c3ccccc3)C2OC(=O)c2ccccc2)C(OC(C)=O)C(OC(C)=O)C1OC(C)=O (stereo unspecified) | > 100 | > 100 | > 100 | > 100 | > 100 | > 100 | > 100 | > 100 | > 100 | > 100 | > 100 | > 100 | > 100 |
| Nc1nc2c(C(=O)O)c3ccc([N+](=O)[O-])cc3c(=O)n2c2ccccc12 | 79.1 | – | 48.8 | 95.5 | > 100 | 70.6 | > 100 | > 100 | > 100 | 95.9 | > 100 | 52.4 | 89.6 |
| NNc1nnc(-c2nnc(NN)o2)o1 | > 10 | > 10 | > 10 | > 10 | > 10 | > 10 | > 10 | > 10 | > 10 | > 10 | > 10 | > 10 | > 10 |
| C=C1CC[C@@H](C)[C@](C)(CCc2ccoc2)C/C=C\C=C/1C(=O)O | > 100 | > 100 | > 100 | > 100 | > 100 | > 100 | > 100 | > 100 | 66.1 | 49.1 | > 100 | > 100 | > 100 |
| CN(CCCNC(=O)c1cc(-c2ccccc2)nc2ccccc12)CCCNC(=O)c1cc(-c2ccccc2)nc2ccccc12 | 7.93 | 3.34 | 3.18 | 3.31 | 3.81 | 16 | 3.08 | 4.69 | 3.28 | 26.8 | 10.1 | 11.1 | 16.7 |
| O=[N+]([O-])c1ccc(C(O)(C#CCN2CCCC2)c2ccccc2)cc1 (stereo unspecified) | > 100 | 58.7 | > 100 | > 100 | > 100 | 95.7 | 42.6 | 42.6 | > 100 | > 100 | 76.6 | > 100 | > 100 |
| N#Cc1nc(C#N)n(S(=O)(=O)c2ccccc2)c1NS(=O)(=O)c1ccccc1 | > 100 | > 100 | > 100 | > 100 | > 100 | > 100 | > 100 | > 100 | > 100 | > 100 | > 100 | > 100 | > 100 |
| CCc1ccc2c(c1)N(CC(C)CN(C)C)c1ccccc1S2 (stereo unspecified) | 17.3 | 7.19 | 12.2 | 21.5 | 8.51 | 18.6 | 8.1 | 3.5 | 17.4 | 26.5 | 21.8 | 17.8 | 23 |
| COc1ccc(C2=NOC(N)(c3ccc(OC)cc3)C2)cc1 (stereo unspecified) | > 100 | > 100 | > 100 | > 100 | > 100 | > 100 | > 100 | > 100 | > 100 | > 100 | > 100 | > 100 | > 100 |
| CCOC(=O)C1CCCCN1C(=O)Cc1c[nH]c2ccccc12 (stereo unspecified) | > 100 | > 100 | > 100 | > 100 | > 100 | > 100 | – | > 100 | > 100 | > 100 | > 100 | > 100 | > 100 |
| CSc1c(C#N)c(N)n(-c2ccc(Cl)cc2)c(=O)c1C#N | > 100 | > 100 | > 100 | – | > 100 | > 100 | > 100 | > 100 | > 100 | > 100 | > 100 | > 100 | > 100 |
